The values that follow come from PMC6295861, “Privileged Structures and Polypharmacology within and between Protein Families” (ACS Medicinal Chemistry Letters, 2018).

Values joined by “and” are separate entries in the source; they are usually repeats but may differ in a detail not shown here. Identical values can stand only once.

One assay deals with HIPK2 (Homo sapiens, UniProt Q9H2X6). Briefly: Radio labeled filter binding kinase assay, HIPK2. In kind it is biochemical.
The next assay has as its target T1, TAOK1 (Homo sapiens, UniProt Q7L7X3).
T1 sequence (Q7L7X3 1-1001): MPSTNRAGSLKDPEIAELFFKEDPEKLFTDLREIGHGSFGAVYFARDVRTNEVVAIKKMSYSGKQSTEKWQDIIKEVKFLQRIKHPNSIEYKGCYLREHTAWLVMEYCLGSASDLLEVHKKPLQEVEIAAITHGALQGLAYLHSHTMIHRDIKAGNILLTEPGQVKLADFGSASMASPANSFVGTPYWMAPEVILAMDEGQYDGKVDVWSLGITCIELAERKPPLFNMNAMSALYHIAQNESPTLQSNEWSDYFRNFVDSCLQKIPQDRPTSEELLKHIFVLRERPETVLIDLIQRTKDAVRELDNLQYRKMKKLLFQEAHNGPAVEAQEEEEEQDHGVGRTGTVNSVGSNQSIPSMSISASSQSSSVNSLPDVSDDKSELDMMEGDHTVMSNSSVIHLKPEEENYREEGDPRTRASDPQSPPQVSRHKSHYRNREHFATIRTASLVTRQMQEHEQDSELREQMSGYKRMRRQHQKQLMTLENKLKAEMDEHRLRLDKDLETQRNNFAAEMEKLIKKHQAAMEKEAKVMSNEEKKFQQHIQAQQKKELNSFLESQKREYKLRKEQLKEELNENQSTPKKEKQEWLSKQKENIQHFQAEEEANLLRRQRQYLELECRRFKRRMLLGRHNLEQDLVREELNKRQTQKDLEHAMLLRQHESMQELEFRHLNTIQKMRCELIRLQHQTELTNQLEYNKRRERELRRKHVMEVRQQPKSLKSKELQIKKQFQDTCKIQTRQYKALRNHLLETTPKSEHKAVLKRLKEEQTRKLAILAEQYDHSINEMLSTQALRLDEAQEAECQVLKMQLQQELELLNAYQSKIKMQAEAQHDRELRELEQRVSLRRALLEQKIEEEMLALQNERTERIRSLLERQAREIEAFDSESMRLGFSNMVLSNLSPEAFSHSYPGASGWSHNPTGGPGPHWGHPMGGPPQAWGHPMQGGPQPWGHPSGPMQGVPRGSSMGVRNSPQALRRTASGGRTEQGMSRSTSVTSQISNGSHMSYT
Kind of assay: Radio labeled filter binding kinase assay, TAOK1. In kind it is biochemical. As to conditions: mean of duplicates.

In assay [1] the target is cyclin-dependent kinase 9 (CDK9). The arrangement: method as in PMID 27746890. As to conditions: cited from earlier work.
In the next assay the target is B-Raf (WT) (Homo sapiens, UniProt P15056). Kind of assay: B-Raf Z'-LYTE cascade kinase assay (SelectScreen). As to conditions: ATP 100 μM, points 1 and 2, listed as CCT363294-01. In kind it is biochemical.
Sequence of B-Raf (WT) (P15056 whole entry): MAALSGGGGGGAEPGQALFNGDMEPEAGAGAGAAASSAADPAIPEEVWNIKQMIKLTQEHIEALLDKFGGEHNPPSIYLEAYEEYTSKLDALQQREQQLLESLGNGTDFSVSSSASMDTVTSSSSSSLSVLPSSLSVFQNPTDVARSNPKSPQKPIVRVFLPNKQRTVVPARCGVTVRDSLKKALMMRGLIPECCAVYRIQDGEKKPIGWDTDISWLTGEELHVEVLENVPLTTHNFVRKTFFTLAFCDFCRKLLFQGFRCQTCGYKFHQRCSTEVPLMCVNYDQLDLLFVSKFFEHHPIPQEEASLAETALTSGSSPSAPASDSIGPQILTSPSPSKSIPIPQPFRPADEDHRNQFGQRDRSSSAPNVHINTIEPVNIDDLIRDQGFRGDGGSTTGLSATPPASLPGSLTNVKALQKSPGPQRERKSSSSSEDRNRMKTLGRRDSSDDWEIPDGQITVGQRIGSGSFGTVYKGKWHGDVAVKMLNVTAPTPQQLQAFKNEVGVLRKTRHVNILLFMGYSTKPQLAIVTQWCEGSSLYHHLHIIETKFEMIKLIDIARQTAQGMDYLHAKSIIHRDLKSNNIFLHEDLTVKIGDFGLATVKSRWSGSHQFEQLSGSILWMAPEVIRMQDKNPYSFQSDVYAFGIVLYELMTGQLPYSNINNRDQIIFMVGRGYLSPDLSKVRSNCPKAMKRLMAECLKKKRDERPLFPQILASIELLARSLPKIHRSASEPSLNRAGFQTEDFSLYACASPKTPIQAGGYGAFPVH

Sequence of HIPK2 (Q9H2X6 whole entry): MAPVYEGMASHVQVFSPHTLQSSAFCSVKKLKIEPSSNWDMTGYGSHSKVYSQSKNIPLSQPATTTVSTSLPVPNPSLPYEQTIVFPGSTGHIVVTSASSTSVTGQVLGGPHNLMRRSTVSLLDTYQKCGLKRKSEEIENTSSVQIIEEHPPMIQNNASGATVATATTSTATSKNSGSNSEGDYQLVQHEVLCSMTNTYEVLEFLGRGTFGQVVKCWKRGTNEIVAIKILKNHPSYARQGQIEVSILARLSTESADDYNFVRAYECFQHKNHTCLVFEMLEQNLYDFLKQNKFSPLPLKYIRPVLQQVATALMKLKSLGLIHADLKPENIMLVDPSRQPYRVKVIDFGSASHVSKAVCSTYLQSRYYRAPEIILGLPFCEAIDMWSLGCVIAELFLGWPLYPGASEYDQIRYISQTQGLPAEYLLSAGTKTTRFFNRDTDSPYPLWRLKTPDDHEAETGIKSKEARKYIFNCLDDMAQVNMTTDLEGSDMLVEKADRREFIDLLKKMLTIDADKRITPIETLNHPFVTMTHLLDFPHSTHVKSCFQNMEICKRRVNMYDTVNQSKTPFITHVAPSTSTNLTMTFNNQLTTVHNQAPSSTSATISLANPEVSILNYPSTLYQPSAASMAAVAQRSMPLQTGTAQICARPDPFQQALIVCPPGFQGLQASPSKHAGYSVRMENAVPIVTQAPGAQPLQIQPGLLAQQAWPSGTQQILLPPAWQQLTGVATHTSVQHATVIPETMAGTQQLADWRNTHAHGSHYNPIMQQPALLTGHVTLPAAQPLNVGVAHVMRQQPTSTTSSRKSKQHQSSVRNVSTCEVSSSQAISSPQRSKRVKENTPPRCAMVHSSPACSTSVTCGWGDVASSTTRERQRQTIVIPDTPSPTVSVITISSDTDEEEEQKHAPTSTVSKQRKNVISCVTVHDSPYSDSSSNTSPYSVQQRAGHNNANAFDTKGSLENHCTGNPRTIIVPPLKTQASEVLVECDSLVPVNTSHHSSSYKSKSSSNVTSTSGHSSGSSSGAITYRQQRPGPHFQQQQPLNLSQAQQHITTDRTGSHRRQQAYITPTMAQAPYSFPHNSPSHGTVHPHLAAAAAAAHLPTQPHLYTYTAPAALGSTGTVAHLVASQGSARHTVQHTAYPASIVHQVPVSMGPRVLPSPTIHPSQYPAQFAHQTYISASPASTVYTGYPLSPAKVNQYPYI

Broadly, the IC50 is the concentration that inhibits the measured activity by half. Turning to `c1cnc2ncn(-c3cc(Nc4ccc(OCCN5CCCCC5)cn4)ncn3)c2c1` [Compd 1], the activity at 0.0003 µM at HIPK2 (0.0003 µM compound, duplicates) stood at 99%; on TAOK1 (0.0003 µM compound), 108%. The HIPK2 % activity at HIPK2 (0.0003 µM compound, duplicates, listed as CCT250006, 0.0003 µM) was 95%; at HIPK2 (0.001 µM compound, duplicates, listed as CCT250006, 0.001 µM), 107%; at HIPK2 (0.003 µM compound, duplicates, listed as CCT250006, 0.003 µM) it was 95% and 121%; at HIPK2 (0.01 µM compound, duplicates, listed as CCT250006, 0.01 µM) it was 88%; on HIPK2 (0.03 µM compound, duplicates, listed as CCT250006, 0.03 µM), 39%; at HIPK2 (0.1 µM compound, duplicates, listed as CCT250006, 0.1 µM) it was 35%. Moreover, the HIPK2 % activity on HIPK2 (0.3 µM compound, duplicates, listed as CCT250006, 0.3 µM) was 11%; on HIPK2 (1 µM compound, duplicates, listed as CCT250006, 1 µM), 5%; on HIPK2 (3 µM compound, duplicates, listed as CCT250006, 3 µM), 1% and 4%; on HIPK2 (10 µM compound, duplicates, listed as CCT250006, 10 µM), 1% and 5%. The activity at 0.001 µM at HIPK2 (0.001 µM compound, duplicates) is 94%; at TAOK1 (0.001 µM compound) it was 95%. For the same compound, the activity at 0.01 µM at HIPK2 (0.01 µM compound, duplicates) came out at 86%; at TAOK1 (0.01 µM compound) it was 116%. Further, the activity at 0.03 µM at HIPK2 (0.03 µM compound, duplicates) stood at 43%; on TAOK1 (0.03 µM compound), 109%. The activity at 0.1 µM was found to be 26% on HIPK2 (0.1 µM compound, duplicates) and 82% at TAOK1 (0.1 µM compound). The activity at 0.3 µM is 9% on HIPK2 (0.3 µM compound, duplicates) and 69% on TAOK1 (0.3 µM compound). Besides, the activity at 1 µM at HIPK2 (1 µM compound, duplicates) is 6%; at TAOK1 (1 µM compound) it was 46%. Moreover, the IC50 is 0.0272 µM at HIPK2 (SI Table S5, unit inferred, one per duplicate curve, read-out: HIPK2 IC50, fitted values above the IC50(µM) line) and ≤ 3 nM in assay [1]. In addition, the activity at 0.003 µM on TAOK1 (0.003 µM compound) was determined as 111%. Further, the activity at 3 µM on TAOK1 (3 µM compound) came out at 20%. Moreover, the activity at 10 µM at TAOK1 (10 µM compound) worked out at 11%.
`CC(C)(C)N1CCN(Cc2ccc3cc(C(=O)Nc4cc(NC(=O)c5ccc6c(c5)OCCO6)ccc4Cl)ccc3n2)CC1` [Compd 8, 2-((4-(tert-butyl)piperazin-1-yl)methyl)-N-(2-chloro-5-(2,3-dihydrobenzo[b][1,4]dioxine-6-carboxamido)phenyl)quinoline-6-carboxamide]: the “% Inhibition BRAF” value at B-Raf (WT) (1.52 nM compound) is -10% and -14%; at B-Raf (WT) (13.7 nM compound), -17% and -16%; on B-Raf (WT) (41.2 nM compound), -36% and -33%; on B-Raf (WT) (123 nM compound) it was -22% and -28%; on B-Raf (WT) (1110 nM compound) it was -4% and -8%; on B-Raf (WT) (3330 nM compound), 6% and -3%.
